Data on seven compounds can be found in US6346540B1, “1-(1,2-disubstituted pipeidinyl)-4-substituted piperidine derivatives” (Janssen Pharmaceutica N.V., priority 1995, dated 2002).

The structures appear in SMILES notation.

Data set [1] concerns guinea-pigs. Put plainly: Antagonism of substance P induced plasma extravasation in guinea-pigs. The class given is in vivo. The following applies: lowest active dose, compound given 1 hour prior to substance P, female guinea-pigs; for LAD conjunctiva / LAD forepaws / LAD nose: 10 minutes after challenge; for LAD trachea / LAD urinary bladder: 30 minutes after challenge. As to the method: Antagonism of Substance P Induced Plasma Extravasation in Guinea-pigs
Plasma extravasation was induced by injection of substance P (2 mg/kg) in the femoral artery of female guinea-pigs. Evans Blue dye (30 mg/kg) was injected simultaneously. The test compound or solvent was administered 1 hour prior to substance P injection. 10 minutes after challenge, the animals were checked for blue colouring (a direct measure for plasma extravasation) of the nose, the forepaws, and the conjunctiva. 30 minutes after challenge, the animals were sacrificed by CO2 gas inhalation and checked for blue coloring of the trachea and the urinary bladder. […]

In general, melting point refers to the temperature, or range, at which the solid turns liquid. On to `Cc1cc(C)cc(C(=O)N2CC[C@H](N3CCC(C(=O)O)(c4ccccc4)CC3)C[C@@H]2Cc2ccccc2)c1` (racemic), for which the melting point stood at 259.1 °C.

In turn, `COc1ccccc1C1(O)CCN([C@@H]2CCN(C(=O)c3cc(C)cc(C)c3)[C@@H](Cc3ccccc3)C2)CC1` (racemic) [Compound 17, (±)-trans-1-(3,5-dimethylbenzoyl)-4-[4-hydroxy-4-(2-methoxyphenyl)-1-piperidinyl]-2-(phenyl-methyl)piperidine] registered a melting point of 213.1 °C.

Compound `Cc1cc(C)cc(C(=O)N2CC[C@H](N3CCC(NC(=O)c4ccccc4N)CC3)C[C@@H]2Cc2ccccc2)c1` (racemic) [Compound 24, (±)-cis-2-amino-N-[1-[1-(3,5-dimethylbenzoyl)-2-(phenylmethyl)-4-piperidinyl]-4-piperidinyl]benzamide] came in with a melting point of 121.1 °C.

For the compound `Cc1cc(C)cc(C(=O)N2CC[C@@H](N3CCC(NCCc4ccccc4)CC3)C[C@@H]2Cc2ccccc2)c1` (racemic) [Compound 27, (±)-trans-1-(3,5-dimethylbenzoyl)-4-[4-[(2-phenylethyl)amino]-1-piperidinyl]-2-(phenylmethyl)piperidine], the melting point was found to be 67.8 °C.

`Cc1cc(C)cc(C(=O)N2CC[C@@H](N3CCC(OC(=O)c4cc(Cl)cc(Cl)c4)CC3)C[C@@H]2Cc2ccccc2)c1` (racemic) [Compound 33, (±)-trans-1-[1-(3,5-dimethylbenzoyl)-2-(phenylmethyl)-4-piperidinyl]-4-piperidinyl 3,5-dichloro-benzoate] displayed a melting point of 83.3 °C.

As to `O=C(c1cc(C(F)(F)F)cc(C(F)(F)F)c1)N1CC[C@@H](N2CCC(n3c(=O)[nH]c4ccccc43)CC2)C[C@@H]1Cc1ccccc1` (racemic) [Compound 43, (±)-trans-1-[3,5-bis(trifluoromethyl)benzoyl]-4-[4-(2,3-dihydro-2-oxo-1H-benzimidazol-1-yl)-1-piperidinyl]-2-(phenylmethyl)piperidine], the melting point was 156.1 °C. In data set [1], the LAD conjunctiva came to 2.5 mg/kg, the LAD forepaws was determined as 2.5 mg/kg, the LAD nose was 2.5 mg/kg and the LAD trachea was found to be 10 mg/kg. In data set [1], this compound came in with an LAD urinary bladder of 10 mg/kg.

In data set [1], `O=C(c1cc(C(F)(F)F)cc(C(F)(F)F)c1)N1CC[C@@H](N2CCC(C(=O)N3CCCC3)(c3ccccc3)CC2)C[C@@H]1Cc1ccc(C(F)(F)F)cc1` (racemic) [Compound 112, (±)-trans-1-[3,5-bis(trifluoromethyl)benzoyl]-4-[4-phenyl-4-(1-pyrrolidinylcarbonyl)-1-piperidinyl]-2-[[4-(trifluoromethyl)phenyl]methyl]-piperidine] displayed an LAD conjunctiva of 2.5 mg/kg, an LAD forepaws of 2.5 mg/kg, an LAD nose of 2.5 mg/kg and an LAD trachea of 2.5 mg/kg. This compound also showed an LAD urinary bladder in data set [1] of 2.5 mg/kg.
